{"source": "patent US9265766B2", "about": "“Methods for altering mRNA splicing and treating familial dysautonomia by administering benzyladenine” (The General Hospital Corporation, priority 2003, dated 2016)", "key": {"[1]": {"test_system": "IKBKAP splicing (WT:MU IKBKAP mRNA)", "assay": "WT:MU IKBKAP mRNA ratio by RT-PCR (IDV) in FD lymphoblast cell lines; drug screen", "type": "cell-based, human", "details": "for correct IKBKAP splicing / production of wild-type IKBKAP transcript in FD cells: 10 μM compound in DMSO, 72 hours, FD lymphoblast cell line", "method": "Drug Screen. The panel of 1040 independent compounds used was specifically designed for the NINDS sponsored Neurodegeneration Drug Screening Consortium (MicroSource Discovery Systems). A single FD lymphoblast cell line was cultured in 24 well format and treated with 10 μM compound dissolved in DMSO for 72 hours. RNA was extracted using Tri-Reagent™ (Molecular Research Center) and reverse transcription and IKBKAP PCR was performed as previously described^4.\nAn assay that provides stable and consistent measurement of the ratio of WT:MU FD IKBKAP mRNA splice products in lymphoblast cell lines was developed^4. This assay was employed as part of the Neurodegeneration Drug Screening Consortium′ to identify compounds that increase the relative production of WT mRNA. A single, standard FD lymphoblast cell line was assayed after 72 hours in the presence of 10 μM test drug, using compounds dissolved in DMSO."}, "[2]": {"test_system": "rat liver and kidney tissue", "details": "in vivo, po; cited from earlier work"}, "MYO5A exon 31 splicing": {"test_system": "MYO5A exon 31 splicing", "details": "reference 13; cited from earlier work"}, "SMN2 exon 7": {"test_system": "SMN2 exon 7", "details": "cited from earlier work"}, "[3]": {"test_system": "IKBKAP WT:MU transcript ratio", "assay": "IKBKAP nonsense mediated decay analysis (cycloheximide) in FD lymphoblast cell lines", "type": "cell-based, human", "details": "50 μg/ml cycloheximide, four hours, FD cells", "experimental": "RT-PCR amplification and fractionation of the amplified product on a 1.5% agarose gel was performed on cell extracts. WT:MU IKBKAP transcript ratios were determined using the integrated density value (IDV) obtained for each band and are shown beneath each lane. Primer sequences and PCR conditions have been previously described^4\nCell Culture and Treatment.\nThe IVS20^+6T→C mutation in IKBKAP leads to a frameshift and a premature termination codon in exon 21, which is expected to target the mutant transcript for decay via the nonsense-mediated mRNA decay (NMD) pathway^15. […] FD cells were exposed to cycloheximide, a translation inhibitor, to inhibit NMD of the mutant transcript^16."}, "[4]": {"test_system": "IKBKAP mRNA (WT, MU, total)", "assay": "Real-time quantitative PCR of IKBKAP transcripts in FD lymphoblast cells", "type": "cell-based, human", "details": "doses higher than 50 μM (data not shown)"}, "IKAP protein": {"test_system": "IKAP protein", "assay": "Western blot of IKAP protein in FD lymphoblast cell lines", "type": "cell-based, human", "details": "increasing concentrations of kinetin, 72 hours, FD lymphoblast cells", "text": "Western Blot Analysis. […] Extracted protein was run on a 6% polyacrylamide gel. The samples were transferred to nitrocellulose and stained with Ponceau-S to visualize protein loading. IKAP was detected using a monoclonal antibody raised against amino acids 796-1008 of IKAP (BD Bioscience) that detects the 150 kD full-length IKAP protein. The same blot was probed with an antibody to insulin-degrading enzyme (IDE) as a protein loading control. Bands were quantitated using an Alpha 2000™ Image Analyzer."}, "FD lymphoblast cells": {"test_system": "FD lymphoblast cells", "assay": "Cellular toxicity in FD lymphoblast cells", "type": "cell-based, human", "details": "400 μM", "experimental": "By contrast, total IKBKAP mRNA was relatively unaffected, with a slight increase (˜1.5 fold) being detected only at doses higher than 50 μM (data not shown)."}, "[5]": {"test_system": "FD (MU) IKBKAP minigene exon 20", "assay": "IKBKAP minigene splicing assay, FD (MU) construct in HEK293 cells", "type": "cell-based, human", "details": "RT-PCR with T7 and BGH-R", "experimental": "(§1) In Vivo IKBKAP Minigene Splicing Assay. IKBKAP genomic DNA was amplified from an unaffected and an FD individual using primers in exon 19 and 21: EX19F-5′-[…] (SEQ ID NO:6) and EX21R-5′-[…] (SEQ ID NO:7). The amplified products were cloned into pcDNA3.1/V5-His Topo (Invitrogen) and sequenced for verification. […] Minigene constructs were transiently transfected 12 hours later using Genejuice (Novagen) as directed by the manufacturer. After 48 hours RNA was isolated using the RNAeasy kit (Qiagen) and reverse transcribed using Superscript™ II reverse transcriptase (Invitrogen) as described^4. PCR was performed using vector specific primers: T7 ([…]) (SEQ ID NO:8) and BGHR ([…]) (SEQ ID NO:9), which amplify both WT and MU transcripts, or the MU specific primer EX19/21F ([…]) (SEQ ID NO:10) and BGH-R to specifically amplify only MU transcripts. PCR was performed as follows: 26 cycles of [94° C., 30 s; 56° C., 30 s; 72° C., 30 s] and products resolved on a 1.5% agarose gel and visualized by ethidium bromide staining.\n(§2) These constructs were transfected into HEK293 cells and RNA was amplified using vector-specific primers to avoid amplification of the endogenous IKBKAP message. […] Introduction of the FD mutation into the construct increased exon 20 skipping as predicted."}, "[6]": {"test_system": "WT IKBKAP minigene exon 20", "assay": "IKBKAP minigene splicing assay, WT construct in HEK293 cells", "type": "cell-based, human", "details": "for inclusion of exon 20, WT minigene construct: RT-PCR with T7 and BGH-R", "experimental": "as §1, §2"}, "[7]": {"test_system": "NF1 minigene (exons 35 to 37, C>T at 6724)", "assay": "NF1 minigene splicing assay in HEK293 cells", "type": "cell-based, human", "details": "HEK293 cells transfected with NF1 minigene, with vs without kinetin", "experimental": "NF1 genomic DNA was amplified from an unaffected and an NF1 individual using primers at the 5′ end of exon 35 and the 3′ end of exon 37. […] The amplified products were cloned into pcDNA3.1/V5-His Topo (Invitrogen) and sequenced for verification. […] Minigene constructs were transiently transfected 12 hours later using Genejuice (Novagen) as directed by the manufacturer. After 48 hours RNA was isolated using the RNAeasy kit (Qiagen) and reverse transcribed using Superscript™ II reverse transcriptase (Invitrogen) as described^4. PCR was performed using vector specific primers: T7 ([…]) (SEQ ID NO:8) and BGHR ([…]) (SEQ ID NO:9), which amplify both WT and MU transcripts. PCR was performed as follows: 30 cycles of [94° C., 30 s; 58° C., 30 s; 72° C., 30 s] and products resolved on a 1.5% agarose gel and visualized by ethidium bromide staining."}, "human skin fibroblasts": {"test_system": "human skin fibroblasts", "details": "cultured human skin fibroblasts; cited from earlier work"}}, "note": "“Also recorded” adds a separate entry of the source. Like-named read-outs stand apart in the source and are kept apart here.", "data": [{"smiles": "CC(C)=CCNc1ncnc2nc[nH]c12", "note": "[2iP, 6-(γ,γ-dimethyallylamino)purine, reference compound]", "values": [{"measurement": "effect on WT:MU IKBKAP ratio", "setting": "[1]; FD lymphoblast assay, tested at 1, 10, 50 and 100 μM", "value": "neither zeatin nor 2iP (dissolved in DMSO at 10 mM) had any effect"}]}, {"smiles": "O=C(O)Cc1c[nH]c2ccccc12", "note": "[IAA, indoleacetic acid, reference compound]", "values": [{"measurement": "lipid peroxidation in liver and kidney tissue", "setting": "[2]", "value": "resulting in lipid peroxidation synthesis"}]}, {"smiles": "CC[C@@]1(O)C[C@H](O[C@H]2C[C@H](N(C)C)[C@H](O[C@H]3C[C@H](O)[C@H](O[C@H]4CCC(=O)[C@H](C)O4)[C@H](C)O3)[C@H](C)O2)c2c(cc3c(c2O)C(=O)c2c(O)cccc2C3=O)[C@H]1C(=O)OC", "note": "[aclarubicin, reference compound]", "values": [{"measurement": "correct IKBKAP splicing / production of wild-type IKBKAP transcript in FD cells", "setting": "[1]", "value": "no effect on IKBKAP splicing"}, {"measurement": "inclusion of alternatively spliced exons in MYO5A (literature)", "setting": "MYO5A exon 31 splicing", "value": "neither of these drugs promotes inclusion"}, {"measurement": "effect on exon 7 of SMN2", "setting": "SMN2 exon 7", "value": "can promote the inclusion of exon 7"}]}, {"smiles": "c1ccc(CNc2ncnc3nc[nH]c23)cc1", "note": "[benzyladenine, 6-benzylaminopurine]", "values": [{"measurement": "enhancement of inclusion of exon 20 in IKBKAP transcripts", "setting": "[1]; by 100 μM, FD lymphoblast assay", "value": "approximately 2 fold"}]}, {"smiles": "C[C@@H]1C[C@@H]([C@H](O)CC2CC(=O)NC(=O)C2)C(=O)[C@@H](C)C1", "note": "[cycloheximide]", "values": [{"measurement": "WT:MU IKBKAP transcript ratio, cycloheximide alone", "setting": "[3]", "value": "decreasing the WT:MU transcript ratio"}]}, {"smiles": "c1coc(CNc2ncnc3nc[nH]c23)c1", "note": "[kinetin, 6-furfurylaminopurine]", "values": [{"measurement": "correct IKBKAP splicing / production of wild-type IKBKAP transcript in FD cells", "setting": "[1]", "value": "dramatically enhanced correct splicing"}, {"measurement": "correct IKBKAP splicing / production of wild-type IKBKAP transcript in FD cells", "setting": "[1]; listed as Kinetin", "value": "significantly increases production of wild-type IKBKAP transcript"}, {"measurement": "MU IKBKAP band by densitometry", "setting": "[1]; 100 μM kinetin, RT-PCR gel", "value": "barely discernable"}, {"measurement": "increase in total IKBKAP mRNA", "setting": "[4]", "value": "~1.5", "unit": "fold"}, {"measurement": "IKAP protein production", "setting": "IKAP protein", "value": "increase in production of IKAP protein"}, {"measurement": "cellular toxicity", "setting": "FD lymphoblast cells", "value": "some cellular toxicity"}, {"measurement": "inclusion of exon 20, FD (MU) minigene construct", "setting": "[5]", "value": "enhanced inclusion of exon 20"}, {"measurement": "inclusion of exon 20, FD (MU) minigene construct", "setting": "[5]; listed as Kinetin", "value": "enhances inclusion of exon 20"}, {"measurement": "exon 20 skipping in WT construct transcripts (MU-specific PCR)", "setting": "[6]; MU-specific primer EX19/21F", "value": "completely corrected; also recorded: absence of MU transcript in the WT lane"}, {"measurement": "inclusion of exon 20, WT minigene construct", "setting": "[6]", "value": "enhanced inclusion of exon 20"}, {"measurement": "inclusion of exon 20, WT minigene construct", "setting": "[6]; listed as Kinetin", "value": "enhances inclusion of exon 20"}, {"measurement": "splicing of NF1 minigene", "setting": "[7]", "value": "altered splicing"}, {"measurement": "effect on exon 7 of SMN2", "setting": "SMN2 exon 7", "value": "no effect on skipping of exon 7"}, {"measurement": "cellular changes associated with in vitro aging of human skin cells", "setting": "human skin fibroblasts", "value": "delay or prevent a range of cellular changes"}, {"measurement": "maximum in vitro life span of human skin cells", "setting": "human skin fibroblasts", "value": "did not alter"}, {"measurement": "toxicity when administered orally to rats", "setting": "[2]", "value": "much less toxicity as compared to indoleacetic acid"}]}, {"smiles": "CC(=CCNc1ncnc2nc[nH]c12)CO", "note": "[zeatin, 6-(4-hydroxy-3-methylbut-2-enylamino)purine, reference compound]", "values": [{"measurement": "effect on WT:MU IKBKAP ratio", "setting": "[1]", "value": "neither zeatin nor 2iP (dissolved in DMSO at 10 mM) had any effect"}]}]}
